# What was measured:
# [1] = biological target: T1, CD-DNMT3A/DNMT3L complex (Homo sapiens, UniProt Q9Y6K1); assay: Compound selectivity, endonuclease-coupled DNA methylation assay; type: biochemical; details: 20 µM inhibitor, 20 nM methyltransferase, 0.25 mM SAM
# T1 construct: CD-DNMT3A; amino acids 611–912; His tag (N); made in house; host or cells: Rosetta 2(DE3)pLysS (E. coli) for CD-DNMT3A
# Description: (§1) Triplicate assays (100 µl) containing 0.25 mM SAM, 0.2 µM oligonucleotide 8006, 0.8 U GlaI, 20 nM methyltransferase, 20 µM inhibitor and 1% DMSO were conducted in 96 well plates. Following enzyme addition, assay plates were incubated at 37°C for 75 min and fluorescence was measured in a BioTek Neo plate reader. A control containing only GlaI was subtracted from each assay. […] Percent activity was determined by comparing product formation to a DMSO containing control assay.
# [2] = biological target: T2, RFTS-containing DNMT1 (amino acids 351–1616) (Homo sapiens, UniProt P26358); assay: as above; type: biochemical; details: 20 µM inhibitor, 20 nM methyltransferase, 0.25 mM SAM
# T2 construct: RFTS-containing DNMT1, amino acids 351–1616; made in house
# T2 sequence (P26358 351-1616): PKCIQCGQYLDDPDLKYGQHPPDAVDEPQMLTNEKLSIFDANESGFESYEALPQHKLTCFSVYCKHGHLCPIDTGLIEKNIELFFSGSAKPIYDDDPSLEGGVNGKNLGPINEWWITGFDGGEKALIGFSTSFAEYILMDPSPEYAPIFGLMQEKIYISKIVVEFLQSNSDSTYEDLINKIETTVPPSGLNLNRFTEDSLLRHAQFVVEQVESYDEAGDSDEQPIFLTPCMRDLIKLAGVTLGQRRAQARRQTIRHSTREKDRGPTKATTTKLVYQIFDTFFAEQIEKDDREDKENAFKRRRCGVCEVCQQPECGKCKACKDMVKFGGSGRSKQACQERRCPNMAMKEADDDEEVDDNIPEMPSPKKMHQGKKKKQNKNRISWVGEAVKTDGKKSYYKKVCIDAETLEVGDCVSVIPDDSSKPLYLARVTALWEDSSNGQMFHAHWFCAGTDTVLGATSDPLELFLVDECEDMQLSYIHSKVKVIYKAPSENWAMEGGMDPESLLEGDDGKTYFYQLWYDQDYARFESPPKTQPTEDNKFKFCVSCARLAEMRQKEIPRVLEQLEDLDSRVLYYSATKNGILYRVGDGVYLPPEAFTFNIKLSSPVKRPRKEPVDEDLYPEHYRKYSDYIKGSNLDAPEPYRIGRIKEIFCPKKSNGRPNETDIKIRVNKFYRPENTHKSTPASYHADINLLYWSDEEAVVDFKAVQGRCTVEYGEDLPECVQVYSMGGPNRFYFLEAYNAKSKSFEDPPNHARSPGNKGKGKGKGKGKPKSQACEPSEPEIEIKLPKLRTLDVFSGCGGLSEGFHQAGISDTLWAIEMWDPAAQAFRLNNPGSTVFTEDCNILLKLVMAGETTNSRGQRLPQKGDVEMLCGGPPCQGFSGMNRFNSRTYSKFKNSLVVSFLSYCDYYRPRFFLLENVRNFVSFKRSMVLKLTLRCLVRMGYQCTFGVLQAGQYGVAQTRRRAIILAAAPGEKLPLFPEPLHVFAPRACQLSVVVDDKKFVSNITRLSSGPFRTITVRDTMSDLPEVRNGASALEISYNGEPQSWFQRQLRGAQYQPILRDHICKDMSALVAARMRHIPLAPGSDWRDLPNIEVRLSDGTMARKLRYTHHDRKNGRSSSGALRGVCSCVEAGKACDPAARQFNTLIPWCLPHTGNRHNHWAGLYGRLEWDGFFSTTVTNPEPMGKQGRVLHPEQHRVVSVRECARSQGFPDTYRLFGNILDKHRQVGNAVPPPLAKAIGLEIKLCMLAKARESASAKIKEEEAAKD
# Description: as §1
# [3] = biological target: T3, M.SssI DNMT (Spiroplasma monobiae, UniProt P15840); assay: as above; type: biochemical, bacterial; details: 1.25 h; 20 µM inhibitor, 20 nM methyltransferase, 0.25 mM SAM; read-out: Percent activity, M.SssI DNMT
# T3 construct: purchased New England Biolabs
# T3 sequence (P15840 whole entry): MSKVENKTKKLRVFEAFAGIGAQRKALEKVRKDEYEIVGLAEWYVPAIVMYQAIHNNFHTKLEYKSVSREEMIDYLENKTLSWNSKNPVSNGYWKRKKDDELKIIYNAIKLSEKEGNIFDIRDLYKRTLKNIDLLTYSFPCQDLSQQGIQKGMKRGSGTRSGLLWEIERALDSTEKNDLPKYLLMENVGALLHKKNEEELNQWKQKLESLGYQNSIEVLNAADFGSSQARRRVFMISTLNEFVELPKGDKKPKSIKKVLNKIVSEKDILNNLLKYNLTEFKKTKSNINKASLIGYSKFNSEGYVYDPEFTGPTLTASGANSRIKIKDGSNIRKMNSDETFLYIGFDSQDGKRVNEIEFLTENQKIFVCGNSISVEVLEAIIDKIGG
# Description: as §1, with “After identifying direct inhibitors of DNMT1 lacking the RFTS domain, inhibitor selectivity was assessed by examining inhibition of RFTS-containing DNMT1 (amino acids 351–1616), CD-DNMT3A/DNMT3L complex, and the bacterial cytosine methyltransferase from M. SssI (New England Biolabs) using the endonuclease-coupled DNA methylation assay. Triplicate” for “Triplicate”
# [4] = tested on: calf thymus DNA; assay: DNA intercalation assay (ethidium bromide displacement); type: binding; details: 10 µM compound
# Description: DNA intercalation was assessed by examining the ability of the compounds to displace ethidium bromide from calf thymus DNA (ctDNA; Sigma). Duplicate assays (100 µl) were conducted in black 96 well plates and contained 15 µg/ml ctDNA, 1.5 µM ethidium bromide and 10 µM compound in methylation assay buffer. DMSO was used as a negative control and daunorubicin (Sigma) was used as a positive control. Fluorescence was measured using excitation and emission wavelengths of 320 nm and 600 nm, respectively.
# T1 sequence (Q9Y6K1 611-912): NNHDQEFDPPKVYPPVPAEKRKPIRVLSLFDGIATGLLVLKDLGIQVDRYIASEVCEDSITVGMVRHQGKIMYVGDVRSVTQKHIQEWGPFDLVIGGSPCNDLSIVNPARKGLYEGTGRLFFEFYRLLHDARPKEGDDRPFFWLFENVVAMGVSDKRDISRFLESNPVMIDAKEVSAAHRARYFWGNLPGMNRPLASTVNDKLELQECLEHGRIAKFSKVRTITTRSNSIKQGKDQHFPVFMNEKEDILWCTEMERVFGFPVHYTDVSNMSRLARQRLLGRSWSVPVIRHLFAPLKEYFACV
# T1 sequence (Q9UJW3 whole entry partner, the tested form may be a part): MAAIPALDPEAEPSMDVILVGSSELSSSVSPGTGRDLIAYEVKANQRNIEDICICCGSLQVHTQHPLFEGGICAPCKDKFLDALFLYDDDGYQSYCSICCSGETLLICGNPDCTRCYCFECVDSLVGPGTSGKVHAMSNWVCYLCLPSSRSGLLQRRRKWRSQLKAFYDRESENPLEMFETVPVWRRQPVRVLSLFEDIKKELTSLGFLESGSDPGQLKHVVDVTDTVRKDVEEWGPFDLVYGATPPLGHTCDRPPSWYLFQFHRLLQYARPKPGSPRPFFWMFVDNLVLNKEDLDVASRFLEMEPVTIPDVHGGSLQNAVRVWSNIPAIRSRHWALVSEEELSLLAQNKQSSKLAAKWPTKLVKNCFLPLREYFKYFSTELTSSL
SMILES,"Percent activity, DNMT3A/DNMT3L Complex [1] [%]","Percent activity, RFTS-containing Dnmt1 [2] [%]",remaining activity at 20 µM [3] [%],DNA intercalation (in words) [4],"RFU (ethidium bromide fluorescence) ([4]; 15 µg/ml ctDNA, 1.5 µM ethidium bromide, DMSO 2370 ± 190) [RFU]"
"Nc1ncn([C@@H]2O[C@H](CO)[C@@H](O)[C@H]2O)c(=O)n1 [5-aza-cytidine, reference compound]",97±10,100±11,100 ± 5,,
"COc1cccc2c1C(=O)c1c(O)c3c(c(O)c1C2=O)C[C@@](O)(C(C)=O)C[C@@H]3O[C@H]1C[C@H](N)[C@H](O)[C@H](C)O1 [Daunorubicin, daunorubicin, reference compound]",,,,significantly reduced fluorescence,605 ± 33

# Source: publication PMC3827244, “An Ultrasensitive High Throughput Screen for DNA Methyltransferase 1-Targeted Molecular Probes” (PLoS ONE, 2013)
